Experimental data taken from article PMC7562955 (Nature Communications, 2020).

Molecular target: T1, human TLR9 (Homo sapiens, UniProt Q9NR96)
T1 construct: host or cells: HEK293 (TLR9/NF-κB/SEAPorter)
T1 sequence (Q9NR96 26-1032): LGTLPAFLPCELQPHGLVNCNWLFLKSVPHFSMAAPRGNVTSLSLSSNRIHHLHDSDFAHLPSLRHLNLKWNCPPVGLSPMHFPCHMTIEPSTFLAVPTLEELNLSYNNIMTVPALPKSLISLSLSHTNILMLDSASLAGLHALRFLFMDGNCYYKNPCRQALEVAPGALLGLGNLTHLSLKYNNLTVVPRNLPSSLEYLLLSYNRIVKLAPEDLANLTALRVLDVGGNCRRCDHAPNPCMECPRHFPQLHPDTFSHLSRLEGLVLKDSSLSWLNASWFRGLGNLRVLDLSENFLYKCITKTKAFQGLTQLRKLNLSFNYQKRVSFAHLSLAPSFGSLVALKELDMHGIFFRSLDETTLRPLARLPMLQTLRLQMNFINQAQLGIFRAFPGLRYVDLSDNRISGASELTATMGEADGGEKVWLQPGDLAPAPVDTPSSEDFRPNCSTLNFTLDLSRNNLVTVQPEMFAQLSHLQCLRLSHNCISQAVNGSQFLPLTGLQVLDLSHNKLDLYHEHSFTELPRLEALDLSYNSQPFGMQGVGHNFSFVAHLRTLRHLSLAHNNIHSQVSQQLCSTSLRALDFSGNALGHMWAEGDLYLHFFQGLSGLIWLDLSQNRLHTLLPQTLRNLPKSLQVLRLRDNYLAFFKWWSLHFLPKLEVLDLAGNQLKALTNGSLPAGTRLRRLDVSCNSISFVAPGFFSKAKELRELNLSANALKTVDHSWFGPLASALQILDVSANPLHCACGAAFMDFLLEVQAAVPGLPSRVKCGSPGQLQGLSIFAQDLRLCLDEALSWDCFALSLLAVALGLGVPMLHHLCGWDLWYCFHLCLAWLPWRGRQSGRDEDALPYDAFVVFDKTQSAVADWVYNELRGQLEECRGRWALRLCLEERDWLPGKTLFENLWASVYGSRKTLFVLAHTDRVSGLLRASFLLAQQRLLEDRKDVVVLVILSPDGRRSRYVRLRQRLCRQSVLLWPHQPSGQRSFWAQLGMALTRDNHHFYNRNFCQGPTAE
Test: Human TLR9 reporter gene inhibitory activity assay (NF-κB/SEAP HEK293)
Type: cell-based
Settings: for human TLR9 activity, reporter signal: CpG2006 500 nM
Method: Compounds were dissolved in dimethyl sulfoxide. Before stimulation with compound, Human TLR7 reporter cell line (TLR7/NF-κB/SEAPorter^TM HEK293 cell, Novus Biological, USA), human TLR8 reporter cell line (TLR8/NF-κB/SEAPorter^TM HEK293 cell, Novus Biological), and human TLR9 reporter cell line (TLR9/NF-κB/SEAPorter^TM HEK293 cell, Novus Biological) were seeded in 96-well microtiter plate (AGC techno glass, Japan) at 5 × 10^4 cells/well in DMEM (GIBCO, United Kingdam) with 10 % fetal bovine serum (GIBCO), and 10 ug/ml Blastcidin S HCl (GIBCO) and incubated at 37 °C in 5% CO2. The plates were incubated over-night and then stimulated with various concentrations of compound. […] After 30 min, R848 (human TLR7/8 ligand, synthesized at Sumitomo Dainippon Pharma, Japan) or CpG2006 (human TLR9 ligand, Hokkaido System Science Co., Ltd., Japan) added to each well, wherein each final concentration were adjusted to 200 nM R848 (human TLR7), 30 μM R848 (human TLR8), or 500 nM CpG2006 (human TLR9). The plates were then incubated an additional 20 ± 1 h at 37 °C in 5% CO2 and then the secreted embryonic alkaline phosphatase (SEAP) activity was measured as activation of human TLR7, 8, and 9. The SEAP activity was evaluated as follows: pNPP (Invitrogen, USA) was added to the incubated sample (50 μl/well); after 15 min, 4 M sodium hydroxide solution (nacalai tesque, Japan) was added thereto (50 μl/well) to quench the reaction; and the absorbance of each sample was measured at 405 nm with microplate reader SpectraMax M4 (Molecular Devices, USA).

| inhibition of TLR9 | Structure (SMILES) | human TLR9 activity, reporter signal (compound 0.0001 nM (as headed)) | human TLR9 activity, reporter signal (compound 0.001 nM (as headed)) | human TLR9 activity, reporter signal (compound 0.003 nM (as headed)) | human TLR9 activity, reporter signal (compound 0.01 nM (as headed)) | human TLR9 activity, reporter signal (compound 0.03 nM (as headed)) | human TLR9 activity, reporter signal (compound 0.1 nM (as headed)) | human TLR9 activity, reporter signal (compound 0.3 nM (as headed)) | human TLR9 activity, reporter signal (compound 1 nM (as headed)) | human TLR9 activity, reporter signal (compound 3 nM (as headed)) | human TLR9 activity, reporter signal (compound 10 nM (as headed)) | human TLR9 activity, reporter signal (compound 30 nM (as headed)) | human TLR9 activity, reporter signal (compound 100 nM (as headed)) |
| --- | --- | --- | --- | --- | --- | --- | --- | --- | --- | --- | --- | --- | --- |
|  | CCOc1nc(N)c2nc(-c3cncc(F)c3)n(Cc3ccc(CN4C[C@@H]5C[C@H]4CN5C)cc3)c2n1 [Cpd-6] | 0.3816 | 0.371 | 0.3771 | 0.3689 | 0.3826 | 0.3836 | 0.372 | 0.3752 | 0.3176 | 0.265 | 0.06893 | 0.01837 |
| without causing any inhibition | CCCCOc1nc(N)c2nc(-c3cccnc3)n(Cc3ccccc3)c2n1 [Cpd-5] | 0.3823 | 0.4021 | 0.4541 | 0.4157 | 0.4224 | 0.4068 | 0.4193 | 0.3613 | 0.3381 | 0.3129 | 0.2475 | 0.2357 |
|  | CCOc1nc(C)c2nc(-c3cncc(F)c3)n(Cc3ccc(CN4C[C@@H]5C[C@H]4CN5C)cc3)c2n1 [Cpd-7] | 0.3816 | 0.3944 | 0.4214 | 0.4209 | 0.4048 | 0.3963 | 0.3799 | 0.3655 | 0.3183 | 0.2034 | 0.05003 | -0.002975 |
|  | CCN(CCO)CCCC(C)Nc1ccnc2cc(Cl)ccc12 (centres unmarked) [HCQ, hydroxychloroquine, reference compound] | 0.3549 |  |  | 0.3663 | 0.3271 | 0.2912 | 0.1984 | 0.0758 | 0.0184 | -0.013 | -0.01145 | -0.00085 |
